Results as given in ChEMBL document CHEMBL1201862, “PubChem BioAssay data set” (2004).
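Cultured in 96-well plates, cells were exposed to test compound for 48 hours across five concentrations. Here, GI50 denotes the concentration required for 50% inhibition of growth.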 Active and inactive are the calls of the source. Cut-off read from the data, not from the text of the source: active = GI50 up to about 1.1 µM and inactive = higher.

How the values were obtained:
Assay in all cases: NCI tumour cell line growth inhibition, 48 h
SNB-19 = test system: SNB-19
NCI-H23 = test system: NCI-H23
UACC-257 = test system: UACC-257
OVCAR-8 = test system: OVCAR-8
786-0 = test system: 786-0
NCI-H522 = test system: NCI-H522
HCT-116 = test system: HCT-116
SN12C = test system: SN12C
ACHN = test system: ACHN
KM12 = test system: KM12
OVCAR-3 = test system: OVCAR-3
CCRF-CEM = test system: CCRF-CEM
COLO 205 = test system: COLO 205
IGROV-1 = test system: IGROV-1
TK-10 = test system: TK-10
LXFL 529 = test system: LXFL 529
OVCAR-4 = test system: OVCAR-4

Measured: GI50

COC(=O)CC(c1ccccc1)C1(c2ccccc2)SCCS1 (stereo unspecified)
inactive: SNB-19 > 290 µM | NCI-H23 130 µM | UACC-257 > 290 µM | OVCAR-8 169 µM | 786-0 > 290 µM | NCI-H522 106 µM | HCT-116 101 µM | SN12C 185 µM | ACHN > 290 µM | KM12 108 µM | OVCAR-3 55.1 µM | CCRF-CEM 105 µM | COLO 205 > 290 µM | IGROV-1 > 290 µM | TK-10 > 290 µM | LXFL 529 92.7 µM

CCOC(=O)C(=CNC(Cc1c[nH]c2ccccc12)C(=O)OC)C(=O)OCC (stereo unspecified)
inactive: SNB-19 > 100 µM | NCI-H23 > 100 µM | OVCAR-8 > 100 µM | NCI-H522 > 100 µM | SN12C > 100 µM | ACHN > 100 µM | OVCAR-3 > 100 µM | CCRF-CEM > 100 µM | COLO 205 > 100 µM | IGROV-1 > 100 µM | TK-10 > 100 µM | LXFL 529 > 100 µM

CCCOc1nc(N)c2cnn(C3CCCCO3)c2n1 (stereo unspecified)
inactive: SNB-19 > 100 µM | NCI-H23 > 100 µM | UACC-257 > 100 µM | OVCAR-8 > 100 µM | 786-0 > 100 µM | NCI-H522 > 100 µM | HCT-116 > 100 µM | OVCAR-4 > 100 µM | SN12C > 100 µM | ACHN > 100 µM | KM12 > 100 µM | OVCAR-3 > 100 µM | CCRF-CEM > 100 µM | COLO 205 > 100 µM | IGROV-1 > 100 µM | LXFL 529 > 100 µM

COC(=O)c1nn(C(=N)c2ccc(Cl)cc2)c2c1CCC2
inactive: SNB-19 > 100 µM | NCI-H23 > 100 µM | UACC-257 > 100 µM | OVCAR-8 > 100 µM | 786-0 > 100 µM | NCI-H522 > 100 µM | HCT-116 > 100 µM | OVCAR-4 > 100 µM | SN12C > 100 µM | ACHN > 100 µM | KM12 > 100 µM | CCRF-CEM > 100 µM | COLO 205 > 100 µM | IGROV-1 > 100 µM | TK-10 > 100 µM | LXFL 529 > 100 µM

O=C(N/C(=C\c1cccc([N+](=O)[O-])c1)c1nc2c(O)nc(S)nc2[nH]1)c1ccccc1
inactive: SNB-19 > 100 µM | NCI-H23 > 100 µM | UACC-257 > 100 µM | OVCAR-8 > 100 µM | 786-0 > 100 µM | NCI-H522 66.8 µM | HCT-116 > 100 µM | OVCAR-4 > 100 µM | SN12C > 100 µM | ACHN > 100 µM | KM12 > 100 µM | OVCAR-3 > 100 µM | CCRF-CEM > 100 µM | COLO 205 > 100 µM | IGROV-1 > 100 µM | LXFL 529 58.5 µM
